Test results taken from patent publication US20260083714A1, “DOSING REGIMEN FOR TREATING PKU WITH A PIPERIDINE INHIBITOR OF SLC6A19 FUNCTION” (Jnana Therapeutics Inc., priority 2022, published 2026).

What was measured:
[1] = Plasma levels of Compound 1 over 24 hours after 14 days of suspension administration in healthy volunteers; assay type: in vivo; conditions: human, oral; for concentration at 0 h: 0 h post-dose; for concentration at 0.5 h: 0.5 h post-dose; for concentration at 1 h: 1 h post-dose; for concentration at 1.5 h: 1.5 h post-dose; for concentration at 2 h: 2 h post-dose; for concentration at 2.5 h: 2.5 h post-dose; for concentration at 3 h: 3 h post-dose; for concentration at 4 h: 4 h post-dose; for concentration at 6 h: 6 h post-dose; for concentration at 8 h: 8 h post-dose; for concentration at 8.5 h: 8.5 h post-dose; for concentration at 9 h: 9 h post-dose; for concentration at 9.5 h: 9.5 h post-dose; for concentration at 10 h: 10 h post-dose; for concentration at 10.5 h: 10.5 h post-dose; for concentration at 11.5 h: 11.5 h post-dose; for concentration at 12 h: 12 h post-dose; for concentration at 14 h: 14 h post-dose; for concentration at 16 h: 16 h post-dose; for concentration at 24 h: 24 h post-dose
Description: FIG. 2 is an assessment of the pharmacokinetics of Compound 1 in healthy volunteers over 24 hours after 14 days of administration of a suspension of the compound at three different doses (25 or 75 mg twice daily [BID] or 150 mg once daily [QD]).
A suspension formulation of varying doses of Compound 1 (25 or 75 mg twice daily [BID] or 150 mg once daily [QD]) was administered to healthy volunteers. Plasma levels of Compound 1 over 24 hours after 14 days of administration were measured (FIG. 2). Post-dose plasma levels are recited in Table 14.

[2] = biological target: T1, SLC6A19 (Homo sapiens, UniProt Q695T7); test: 24 h excretion of phenylalanine and Hartnup amino acids at Day 1, 7 and 14 of suspension administration in healthy volunteers; assay type: in vivo; conditions: for Hartnup Amino Acids excretion over 24 hours, Mean / Phenylalanine excretion over 24 hours, Mean: in mg
T1 construct: SCL6A19 is located in the proximal tubule of the kidney and is responsible for reabsorption of amino acids back into the blood; from tissue; host or cells: Kidney proximal tubule of healthy volunteers (in vivo, endogenous)
T1 sequence (Q695T7 1-634): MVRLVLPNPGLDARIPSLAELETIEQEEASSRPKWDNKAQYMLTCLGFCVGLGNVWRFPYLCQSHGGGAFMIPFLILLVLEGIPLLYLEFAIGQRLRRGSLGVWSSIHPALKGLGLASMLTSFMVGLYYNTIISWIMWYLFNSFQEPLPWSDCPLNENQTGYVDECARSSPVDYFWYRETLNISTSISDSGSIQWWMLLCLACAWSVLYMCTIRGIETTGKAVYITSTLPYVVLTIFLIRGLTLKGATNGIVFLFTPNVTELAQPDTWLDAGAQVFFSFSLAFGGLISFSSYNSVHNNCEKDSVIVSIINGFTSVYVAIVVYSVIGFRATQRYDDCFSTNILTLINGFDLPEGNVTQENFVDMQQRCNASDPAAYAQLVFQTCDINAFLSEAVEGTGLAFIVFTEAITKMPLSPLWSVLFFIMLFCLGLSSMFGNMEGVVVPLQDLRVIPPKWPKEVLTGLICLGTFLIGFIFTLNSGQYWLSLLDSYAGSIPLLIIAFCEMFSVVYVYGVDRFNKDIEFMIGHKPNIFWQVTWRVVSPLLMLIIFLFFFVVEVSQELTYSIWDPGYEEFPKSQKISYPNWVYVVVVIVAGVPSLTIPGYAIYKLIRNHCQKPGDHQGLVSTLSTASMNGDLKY
T1 sequence (Q9HBJ8 15-222 partner): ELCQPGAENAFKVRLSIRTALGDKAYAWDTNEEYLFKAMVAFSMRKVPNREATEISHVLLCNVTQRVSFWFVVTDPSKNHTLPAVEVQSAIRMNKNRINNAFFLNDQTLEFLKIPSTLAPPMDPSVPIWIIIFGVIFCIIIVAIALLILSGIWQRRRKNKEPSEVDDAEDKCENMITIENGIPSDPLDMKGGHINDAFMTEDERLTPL
Description: FIG. 3A is a graph of the pharmacodynamic effect of Compound 1 over time in healthy volunteers by measuring changes in total overall SLC6A19 amino acid substrates (Hartnup amino acids) over 14 days of administration of a suspension of the compound at three different doses (25 or 75 mg twice daily [BID] or 150 mg once daily [QD]).
FIG. 3B is a graph of the pharmacodynamic effect of Compound 1 over time in healthy volunteers by measuring changes in total 24 hour phenylalanine over 14 days of administration of a suspension of the compound at three different doses (25 or 75 mg twice daily [BID] or 150 mg once daily [QD]).
A suspension formulation of varying doses of Compound 1 (25 or 75 mg twice daily [BID] or 150 mg once daily [QD]) was administered to healthy volunteers. Changes in excretion of phenylalanine or overall SLC6A19 amino acid substrates (Hartnup amino acids) over 24 hours were measured at Day 1, 7 and 14 (FIGS. 3A and 3B). Urinary excretion of Hartnup amino acids over 24 hours increased from 0.4 g w/ PBO to 4.9 g w/ the compound 75 mg BID (13-fold increase) (Table 15A).

NC(=O)N1CCC[C@@H](N(C(=O)NCc2ccc(OC(F)(F)F)cc2F)C2CC2)C1 [Cpd 1, (R)-3-(1-cyclopropyl-3-(2-fluoro-4-(trifluoromethoxy)benzyl)ureido) piperidine-1-carboxamide]
concentration at 0 h ([1]; 25 mg BID suspension): 186 ng/mL | concentration at 0.5 h ([1]; 25 mg BID suspension): 1190 ng/mL | concentration at 1 h ([1]; 25 mg BID suspension): 1090 ng/mL | concentration at 1.5 h ([1]; 25 mg BID suspension): 1000 ng/mL | concentration at 2 h ([1]; 25 mg BID suspension): 922 ng/mL | concentration at 2.5 h ([1]; 25 mg BID suspension): 899 ng/mL | concentration at 3 h ([1]; 25 mg BID suspension): 820 ng/mL | concentration at 4 h ([1]; 25 mg BID suspension): 682 ng/mL | concentration at 6 h ([1]; 25 mg BID suspension): 442 ng/mL | concentration at 8 h ([1]; 25 mg BID suspension): 336 ng/mL | concentration at 8.5 h ([1]; 25 mg BID suspension): 894 ng/mL | concentration at 9 h ([1]; 25 mg BID suspension): 977 ng/mL | concentration at 9.5 h ([1]; 25 mg BID suspension): 1010 ng/mL | concentration at 10 h ([1]; 25 mg BID suspension): 1010 ng/mL | concentration at 10.5 h ([1]; 25 mg BID suspension): 957 ng/mL | concentration at 11.5 h ([1]; 25 mg BID suspension): 909 ng/mL | concentration at 12 h ([1]; 25 mg BID suspension): 748 ng/mL | concentration at 14 h ([1]; 25 mg BID suspension): 562 ng/mL | concentration at 16 h ([1]; 25 mg BID suspension): 422 ng/mL | concentration at 24 h ([1]; 25 mg BID suspension): 193 ng/mL | concentration at 0 h ([1]; 75 mg BID suspension): 916 ng/mL | concentration at 0.5 h ([1]; 75 mg BID suspension): 3350 ng/mL | concentration at 1 h ([1]; 75 mg BID suspension): 3860 ng/mL | concentration at 1.5 h ([1]; 75 mg BID suspension): 3550 ng/mL | concentration at 2 h ([1]; 75 mg BID suspension): 3330 ng/mL | concentration at 2.5 h ([1]; 75 mg BID suspension): 3140 ng/mL | concentration at 3 h ([1]; 75 mg BID suspension): 2910 ng/mL | concentration at 4 h ([1]; 75 mg BID suspension): 2610 ng/mL | concentration at 6 h ([1]; 75 mg BID suspension): 2000 ng/mL | concentration at 8 h ([1]; 75 mg BID suspension): 1600 ng/mL | concentration at 8.5 h ([1]; 75 mg BID suspension): 3430 ng/mL | concentration at 9 h ([1]; 75 mg BID suspension): 3600 ng/mL | concentration at 9.5 h ([1]; 75 mg BID suspension): 3740 ng/mL | concentration at 10 h ([1]; 75 mg BID suspension): 3600 ng/mL | concentration at 10.5 h ([1]; 75 mg BID suspension): 3740 ng/mL | concentration at 11.5 h ([1]; 75 mg BID suspension): 3200 ng/mL | concentration at 12 h ([1]; 75 mg BID suspension): 2900 ng/mL | concentration at 14 h ([1]; 75 mg BID suspension): 2280 ng/mL | concentration at 16 h ([1]; 75 mg BID suspension): 1850 ng/mL | concentration at 24 h ([1]; 75 mg BID suspension): 741 ng/mL | concentration at 0 h ([1]; 150 mg QD suspension): 299 ng/mL | concentration at 0.5 h ([1]; 150 mg QD suspension): 4230 ng/mL | concentration at 1 h ([1]; 150 mg QD suspension): 4590 ng/mL | concentration at 1.5 h ([1]; 150 mg QD suspension): 4360 ng/mL | concentration at 2 h ([1]; 150 mg QD suspension): 4100 ng/mL | concentration at 2.5 h ([1]; 150 mg QD suspension): 3940 ng/mL | concentration at 3 h ([1]; 150 mg QD suspension): 3660 ng/mL | concentration at 4 h ([1]; 150 mg QD suspension): 3130 ng/mL | concentration at 6 h ([1]; 150 mg QD suspension): 2270 ng/mL | concentration at 8 h ([1]; 150 mg QD suspension): 1750 ng/mL | concentration at 10 h ([1]; 150 mg QD suspension): 1360 ng/mL | concentration at 12 h ([1]; 150 mg QD suspension): 1000 ng/mL | concentration at 24 h ([1]; 150 mg QD suspension): 247 ng/mL | Hartnup Amino Acids excretion over 24 hours, Mean ([2]; 25 mg BID suspension, Day 1): 2123.44 | Phenylalanine excretion over 24 hours, Mean ([2]; 25 mg BID suspension, Day 1): 37.38 | Hartnup Amino Acids excretion over 24 hours, Mean ([2]; 25 mg BID suspension, Day 7): 1835.21 | Phenylalanine excretion over 24 hours, Mean ([2]; 25 mg BID suspension, Day 7): 35.22 | Hartnup Amino Acids excretion over 24 hours, Mean ([2]; 25 mg BID suspension, Day 14): 1427.77 | Phenylalanine excretion over 24 hours, Mean ([2]; 25 mg BID suspension, Day 14): 19.65 | increase of urinary excretion of Hartnup amino acids over 24 hours ([2]; 75 mg BID suspension versus PBO (0.4 g)): 13 fold | Hartnup Amino Acids excretion over 24 hours, Mean ([2]; 75 mg BID suspension, Day 1): 4472.55 | Phenylalanine excretion over 24 hours, Mean ([2]; 75 mg BID suspension, Day 1): 105.25 | Hartnup Amino Acids excretion over 24 hours, Mean ([2]; 75 mg BID suspension, Day 7): 4398.31 | Phenylalanine excretion over 24 hours, Mean ([2]; 75 mg BID suspension, Day 7): 70.98 | Hartnup Amino Acids excretion over 24 hours, Mean ([2]; 75 mg BID suspension, Day 14): 4922.75 | Phenylalanine excretion over 24 hours, Mean ([2]; 75 mg BID suspension, Day 14): 88.64 | Urinary excretion of Hartnup amino acids over 24 hours ([2]; 75 mg BID suspension, healthy volunteers): 4.9 g | Hartnup Amino Acids excretion over 24 hours, Mean ([2]; 150 mg QD suspension, Day 1): 3861.43 | Phenylalanine excretion over 24 hours, Mean ([2]; 150 mg QD suspension, Day 1): 106.76 | Hartnup Amino Acids excretion over 24 hours, Mean ([2]; 150 mg QD suspension, Day 7): 6785.54 | Phenylalanine excretion over 24 hours, Mean ([2]; 150 mg QD suspension, Day 7): 166.71 | Hartnup Amino Acids excretion over 24 hours, Mean ([2]; 150 mg QD suspension, Day 14): 3737.47 | Phenylalanine excretion over 24 hours, Mean ([2]; 150 mg QD suspension, Day 14): 72.43
